Results on 2 compounds are retold here after publication PMC6707612, “Cyclic-di-GMP binds to histidine kinase RavS to control RavS-RavR phosphotransfer and regulates the bacterial lifestyle transition between virulence and swimming” (PLoS Pathogens, 2019).

For assay [1], the target named is T1, RavS^ΔN (Xanthomonas campestris pv. campestris, UniProt Q8P9A6).
T1 sequence (Q8P9A6 352-697): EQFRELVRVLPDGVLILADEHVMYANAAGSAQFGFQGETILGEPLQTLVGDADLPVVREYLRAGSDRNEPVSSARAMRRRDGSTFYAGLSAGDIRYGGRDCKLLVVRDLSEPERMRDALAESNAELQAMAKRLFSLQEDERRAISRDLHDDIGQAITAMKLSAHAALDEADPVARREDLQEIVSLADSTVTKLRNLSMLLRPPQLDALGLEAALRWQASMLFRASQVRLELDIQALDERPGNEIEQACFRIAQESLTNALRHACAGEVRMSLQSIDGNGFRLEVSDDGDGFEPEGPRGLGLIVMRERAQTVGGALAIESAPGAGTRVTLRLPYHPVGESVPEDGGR
In words: in vitro RavS-RavR phosphotransfer assay (RavS~P level by autoradiography). The class given is biochemical. The procedure: (a) c-di-GMP enhances RavS-RavR phosphotransfer in vitro. A total of 5 μM RavS^ΔN was autophosphorylated for 15 min by the addition of 10 μCi [γ-^32P]ATP. A total of 15 μM RavR^ΔEAL or RavR^ΔEAL(D496A) was added and incubated for 30 min at 25°C. A total of 100 μM c-di-GMP was added if necessary. The reactions were terminated with 5× SDS loading buffer before autoradiography. The experiment was repeated three times. (b) Time course analyses of the impact of c-di-GMP on the velocity of RavS-RavR phosphotransfer. The autophosphorylation and phosphotransfer reactions were set as mentioned in (a). Various concentrations of c-di-GMP were added to the reactions and isotopic signals (band intensities) of RavS~P were measured after autoradiography. (c–d) c-di-GMP triggered an increase in RavS-RavR phosphotransfer in a dose-dependent manner. (c) Various concentrations of c-di-GMP (0, 5, 10, 15, 30, 50, 75 and 100 μM) were added to the RavS-RavR phosphotransfer reactions. (d) The phosphorylated level of RavS^ΔN~P was quantified by ImageJ and the EC50 value was estimated by Origin 8.5 software. In (b) and (d), the intensity of each data point is the average from three experimental repeats. (e) c-di-GMP triggered increase in RavS-RavR phosphotransfer is highly specific. […] (f) RavS specifically interacts with fl-c-di-GMP. The interaction between RavS^ΔTrM and various nucleotides, including fl-c-di-GMP, fl-cGMP and fl-c-di-AMP, were measured by microscale thermophoresis (MST). A total of 20 nM fluorescein-labelled nucleotides and increasing concentrations of proteins were incubated and measured by MST. The dissociation constant (Kd) was quantified to estimate the binding affinity. Each experiment was repeated three times.
An in vitro autophosphorylation assay was conducted as described in our previous study. Purified protein was incubated with 10 μM ATP containing 10 μCi [γ-^32P]ATP (PerkinElmer, USA) in the reaction buffer (50 mM Tris-HCl, pH 7.8, 25 mM NaCl, 25 mM KCl, 5 mM MgCl2, 2 mM DTT) for the indicated time at 28°C. If necessary, c-di-GMP was added to the mixture at the same time as ATP. For the phosphoryl transfer assay, purified RR protein or its derivative was added into the reaction mixture containing the phosphorylated HK. The autophosphorylation or phosphoryl transfer reaction was terminated by adding 5× SDS-PAGE loading buffer. Phosphorylated proteins were separated by 12% SDS-PAGE. After electrophoresis, gels were exposed to a phosphor screen (GE Healthcare) and the autoradiographic signals were detected by a Typhoon FLA7000 (GE Healthcare).

In assay [2] the target is DHp-CA domain of RavS (Xanthomonas campestris pv. campestris, UniProt Q8P9A6). In words: microscale thermophoresis (MST) binding. Conditions: read-out: dissociation constant (Kd). The procedure:
Fig 6 Arg^656 in the CA domain of RavS is a key residue for c-di-GMP binding. (a, b) c-di-GMP binds to the DHp-CA domain of RavS. PAS-A, PAS-B and DHp-CA in (a), and DHp and CA domains of RavS in (b), were purified and the interaction with c-di-GMP was measured by MST. Each assay was repeated three times. Standard deviations are shown. (c) Molecular docking model of the interaction between c-di-GMP and DHp-CA of RavS. c-di-GMP is shown as a ball-and-stick model and DHp-CA is shown in ribbon representation. (d) Schematic view of the predicted docking site between c-di-GMP and DHp-CA. Potential hydrogen bonds are indicated as blue dashed lines. Autodock software was used to predict the interaction. (e) Effect of amino acid substitutions on RavS–c-di-GMP binding. Ten recombinant proteins of the DHp-CA region, each containing a substitution of a putative essential residue involved in c-di-GMP binding, were used in the MST assay to quantify the Kd value of RavS–c-di-GMP binding. fl-c-di-GMP was used in the MST assay. Each experiment was repeated three times. […] The reactions were terminated with 5× SDS loading buffer and the products were separated by 12% SDS-PAGE, exposed to a phosphor screen and analysed by Typhoon FLA7000. […]
The interaction between c-di-GMP nucleotides and various proteins was measured by using MST with a fluorescein-labelled c-di-GMP (2′-Fluo-AHC-c-di-GMP, abbreviated as fl-c-di-GMP; 2′-Fluo-AHC-c-di-AMP, fl-c-di-AMP; 2′-Fluo-AHC-cGMP, fl-cGMP; Biolog, Germany). These chemicals contain carboxyfluorescein that has excitation and emission wavelengths of 497 nm and 520 nm, respectively, which can be detected directly by a MST instrument. […] Fluorescence intensity due to thermophoresis was recorded using the blue channel optics of the instrument (λex = 470 ± 15 nm, λem = 520 ± 10 nm) during a 30 s period of infrared laser heating at 80% of the maximum laser power, followed by a 5 s cooling period. […]
A general note: In MST a laser heats a spot of the sample, and binding alters the fluorescence response.

Where “and” joins values, the source holds several entries; their conditions need not be identical. Equal values may be shown once.

With `Nc1nc2c(ncn2[C@@H]2O[C@@H]3COP(=O)(O)O[C@H]4[C@@H](O)[C@H](n5cnc6c(=O)[nH]c(N)nc65)O[C@@H]4COP(=O)(O)O[C@H]3[C@H]2O)c(=O)[nH]1` [c-di-GMP, Cyclic di-GMP], the EC50 in assay [1] (5 μM RavS^ΔN, 15 μM RavR^ΔEAL, 30 min at 25°C, RavS^ΔN~P level quantified by ImageJ, read-out: median effect concentration (EC50) on RavS-RavR phosphotransfer) is 15.6 µM and ~15.6 µM. For the same compound, in assay [1] (15 μM c-di-GMP present, without c-di-GMP 38.2 min), the “T50: time that signal intensity of RavS~P decreased to half of the initiation stage” value was 16.9 min.
What is called Kd is a measure of binding affinity in units of concentration. As to `Nc1nc2c(ncn2[C@@H]2O[C@@H]3COP(=O)(O)O[C@H]4[C@@H](OC(=O)NCCCCCCNC(=O)c5ccc6c(c5)C(=O)OC65c6ccc(O)cc6Oc6cc(O)ccc65)[C@H](n5cnc6c(=O)[nH]c(N)nc65)O[C@@H]4COP(=O)(O)O[C@H]3[C@H]2O)c(=O)[nH]1` [fl-c-di-GMP, 2′-Fluo-AHC-c-di-GMP], the Kd in assay [2] worked out at 6.25 ± 0.8 µM.
